{
  "source": "patent US7781580B2",
  "about": "“Stilbene derivatives as new cancer therapeutic agents” (Virginia Commonwealth University, priority 2007, dated 2010)",
  "key": {"[1]": {"assay": "water solubility of stilbene and carbamate prodrug (salts and free base)", "type": "physicochemical", "details": "for solubility: water, 20 °C, 20° C.", "procedure": "Stilbene prodrugs may be made by attaching to a stilbene derivative of interest (e.g. a stilbene derivative with anti-tumor activity), chemical groups (or moieties) that render the stilbene derivative more water soluble than before such a modification is carried out. By “water soluble” we mean that more than 20 mg compound can be fully dissolved in 1 mL of water. Further, the chemical groups that are attached to the stilbene derivative to make the derivative water soluble are labile (i.e. removable) in that, upon exposure to in vitro or in vivo hydrolyzing conditions, the chemical groups are removed or dissociated from the stilbene derivative by hydrolysis, releasing the active, anti-tumor form of the stilbene derivative. The chemical groups which are attached may themselves be biologically active, and are, at least, not biologically injurious to cells or mammals. […] As illustrated, morfolinoethyl-urea, morfolinoethyl-carbamate and triethylene glycol (TEG) groups (5a, 5b, 5c, respectively) may be used for this purpose."}, "[2]": {"assay": "animal toxicity of 13a", "details": "50 mg/kg"}, "[3]": {"tested_on": "UCI101 ovarian cancer cells", "assay": "Western blot of signal transduction events, UCI101", "type": "cell-based", "method_in_brief": "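UCI101 cells exposed to 0.1 μM compound for 0, 4, 8, 16 and 36 h, then harvested and analysed by Western blot. Probes covered G2-M regulators Cdc2, Cdc25c and BubR1, plus Akt phosphorylation.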"}, "[4]": {"tested_on": "UCI101 ovarian cancer cells", "assay": "Alamar Blue cell growth inhibition, UCI101", "type": "cell-based", "method_in_brief": "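UCI101 cells at 50% confluence treated 48 h in triplicate with compound (0–10 μM series) or 0.1% DMSO vehicle as 100% control. Alamar Blue added at 1/10 volume for 2 h; absorbance read at 570 and 600 nm, percent growth inhibition from the manufacturer's formula.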"}, "[5]": {"tested_on": "MDA-MB231 breast cancer cells", "assay": "Alamar Blue cell growth inhibition, MDA-MB231", "type": "cell-based", "details": "Homo sapiens, MDA-MB-231; MDA-MB231", "procedure": "Cell growth was measured by Alamar Blue™ staining and the percentage of cell growth inhibition was calculated and compared with control cells that were treated with 0.1% DMSO, the vehicles for the stilbene compounds.\n(§1) Various cancer cell lines were grown in 96-well plates for drug sensitivity assays. Once cells achieved 50% confluence, the incubation media was changed to the same cell growth media with different concentrations of the tested compounds or vehicle alone. Cells were then incubated for 48 hours before the cell growth inhibition study. To determine the degree of cell growth inhibition, 1/10 volume of Alamar Blue™ solution was added to each well and optical density (OD) at 570 and 600 nm was determined. The percentage of growth inhibition was calculated according to the manufacturer's formula as follows: The percentage of growth is [(117216×A570)−(80586×A600)]/[(117216×A^o570)−(80586×A^o600)]×100. In this formula, A570 is the absorbance of the treated samples at 570 nm; A600 is the absorbance of the treated samples at 600 nm; A^o570 is the absorbance of the […] samples at 570 nm; and A^o600 is the absorbance of the untreated samples at 600 nm. The two constants, 117216 and 80586, are the extinction coefficients of Alamar Blue™ at 570 and 600 nm respectively. Each concentration was repeated in triplicate to minimize the error.\n(§2) We first tested the cytotoxic effect of various stilbene derivatives for their in vitro efficacy of suppressing tumor cell proliferation. Cells were first plated in 96-well plates at 50% confluence and treated with 0, 0.01, 0.03, 0.1, 0.3, 1.0, 3.0, 10 μM concentrations of stilbene derivatives for 48 hours in triplicate. Alamar Blue™ reagent was added into each well at 1/10 volume and incubated for 2 hours before quantification of the absorbance at 570 and 600 nm."}, "[6]": {"tested_on": "SNU423 hepatocellular carcinoma cells", "assay": "Alamar Blue cell growth inhibition, SNU423", "type": "cell-based", "method_in_brief": "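Cells at 50% confluence were treated for 48 h in triplicate with 0-10 μM compound or 0.1% DMSO vehicle. Alamar Blue was added at 1/10 volume for 2 h, and absorbance at 570 and 600 nm gave % growth via the manufacturer's extinction-coefficient formula relative to vehicle controls.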"}, "[7]": {"tested_on": "MiaPaCa2 pancreatic cancer cells", "assay": "Alamar Blue cell growth inhibition, MiaPaCa2", "type": "cell-based", "details": "Homo sapiens, MIA PaCa-2; MiaPaCa2", "procedure": "as §1, §2"}, "[8]": {"tested_on": "SKOV3 ovarian cancer cells", "assay": "Alamar Blue cell growth inhibition, SKOV3", "type": "cell-based", "method_in_brief": "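SKOV3 cells at 50% confluence were treated 48 h with compounds, against 0.1% DMSO vehicle controls. Growth was read by Alamar Blue absorbance at 570 and 600 nm, with % growth inhibition from the manufacturer's extinction-coefficient formula. Each concentration was run in triplicate.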"}, "[9]": {"tested_on": "UCI101 ovarian cancer cells (xenograft)", "assay": "UCI101 xenograft in nude mice", "type": "in vivo", "procedure": "(§3) (a) In vitro sensitivity of UCI101 cells toward three potential stilbene prodrugs, 5a-c, was tested in 96-well plates using Alamar Blue™ assays to determine cell growth inhibition. […] (b) 5b induces cell cycle change and apoptosis in UCI101 cells. Cells were incubated with 5b at 1, 3, 10 μM for 16 hours followed by PI staining and flow cytometry analysis. A subG0/1 population, representing apoptotic cells, appeared along with a decrease of the G1/G2 ratio after cells were treated with 3 μM 5b. Higher concentration (10 μM) of 5b completely killed cells, as was the case with stilbene 4a at 100 μM. (c) Cells treated with stilbene 4a and 5b were stained with phospho-histone 3B, a mitotic marker. The positive signals of phospho-histone 3B were shown in green and nuclei were stained with DAPI in blue. […] (d) In vivo efficacy of 5b compared with stilbene 4a. Nude mice were injected with UCI101 ovarian cancer cells and treated with 7 doses of 5b,c or stilbene 4a every 2-3 days. Tumor volume was calculated and plotted against days.\nWe next tested whether 5b could be converted into stilbene 4a in circulation. […] Blood was collected at 20, 60 and 240 min after injection for spot check of stilbene 4a level in serum. […] The in vivo efficacy of 5b and 5c was compared to stilbene 4a in a pilot study using 5 mice in each group."}, "[10]": {"tested_on": "UCI101 cells", "assay": "cell cycle analysis (propidium iodide, FACScan), UCI101", "type": "cell-based", "procedure": "Cells were stained with propidium iodide and analyzed with FACScan. Both 5b at 3 μM and stilbene 4a at 30 nM induce a subG0/1 population that represents the dead population. At higher concentrations of either compound, nearly all cells are dead.\nas §3, with “Cells were incubated with 5b at 1, 3, 10 μM for 16 hours followed by PI staining and flow cytometry analysis.” left out, “Higher concentration (10 μM) of 5b completely killed cells, as was the case with stilbene 4a at 100 μM.” left out"}, "[11]": {"tested_on": "UCI101 cells", "assay": "immunofluorescent staining of tubulin, UCI101", "type": "cell-based", "details": "CA4 10 nM, stilbene 4a 100 nM, 5b 3 μM; 16 hours", "from_the_text": "Nuclei were stained with DAPI."}, "[12]": {"tested_on": "UCI101 cells", "assay": "phospho-histone 3B mitotic marker staining", "type": "cell-based", "procedure": "as §3\nThe in vitro efficacy of these three compounds was tested in UCI101 cells in 96-well plate format and stained with Alamar blue™, The growth suppression was calculated as was done similarly to other test compounds. […] A dose response was then performed with various concentrations of 5b in vitro. […]"}, "[13]": {"assay": "preliminary toxicity and serum conversion of 5b", "type": "in vivo, mice", "from_the_text": "We next tested whether 5b could be converted into stilbene 4a in circulation. […] The in vivo efficacy of 5b and 5c was compared to stilbene 4a in a pilot study using 5 mice in each group."}, "[14]": {"tested_on": "MDA-MB231 cells", "assay": "immunofluorescent staining of tubulin, MDA-MB231", "type": "cell-based", "details": "CA4 10 nM, stilbene 4a 100 nM, vincristine 100 nM, 5b 3 μM; 16 hours", "from_the_text": "Nuclei were stained with 4′,6-diamidino-2-phenylindole (DAPI). Control cells show the reticular pattern of the microtubule network."}},
  "note": "Structures can show the parent of a compound that is named as a salt. Where two headings read alike, the source gives them in different places.",
  "data": [
    {"smiles": "COc1cc(/C=C\\c2ccc3c(ccn3C)c2)cc(OC)c1", "note": "[13a, (Z)-5-[2-(3,5-Dimethoxy-phenyl)-vinyl]-1-methyl-1H-indole]", "values": [
      {"measurement": "water solubility (in words)", "setting": "[1]", "result": "poor water solubility"},
      {"measurement": "neurotoxicity", "setting": "[2]", "result": "transient neurotoxicity was observed"},
      {"measurement": "phosphorylation of Stat3", "setting": "[3]; 0.1 μM", "result": "more pronounced"},
      {"measurement": "phosphorylation of Chk1", "setting": "[3]; 36 hours", "result": "do not cause more phosphorylation of Chk1"},
      {"measurement": "relative potency / activity", "setting": "[4]; UCI101, 48 hours", "result": "about equal in their potency"},
      {"measurement": "IC50", "setting": "[5]", "result": 10, "unit": "nM"},
      {"measurement": "IC50", "setting": "[6]; Homo sapiens, SNU-423, 48 h, read-out: IC50 (50% growth inhibition), SNU423, 48 hours", "result": 10, "unit": "nM"},
      {"measurement": "effective concentration, blocking cell proliferation", "setting": "[6]; SNU423, 48 hours", "result": 0.03, "unit": "µM"},
      {"measurement": "IC50", "setting": "[7]", "result": 10, "unit": "nM"},
      {"measurement": "IC50", "setting": "[8]; Homo sapiens, SK-OV-3, SKOV, read-out: IC50", "result": "50 to 100", "unit": "nM"},
      {"measurement": "effective / active concentration", "setting": "[8]; SKOV3, 48 hours", "result": 0.1, "unit": "µM"}
    ]},
    {"smiles": "COc1cc(/C=C\\c2ccc(OC)c(NC(=O)OCCN3CCOCC3)c2)cc(OC)c1", "note": "[5b, (Z)-{5-[2-(3,5-Dimethoxy-phenyl)-vinyl]-2-methoxy-phenyl}-carbamic acid 2-morpholin-4-yl-ethyl ester, oxalate salt]", "values": [
      {"measurement": "tumor growth versus control mice", "setting": "[9]; 7 doses every 2-3 days", "result": "only compound that achieved statistical significance compared with control mice"},
      {"measurement": "tumor growth suppression", "setting": "[9]; 7 doses every 2-3 days, 5 mice in each group", "result": "about 40%"},
      {"measurement": "mouse weight", "setting": "[9]; mouse, in vivo", "result": "did not show any significant change"},
      {"measurement": "cell death / cell cycle arrest at 1 μM", "setting": "[10]; 1 μM", "result": "not effective in inducing cell death or cell cycle arrest"},
      {"measurement": "cell death / cell cycle arrest at 3 μM", "setting": "[10]; 3 μM", "result": "showed a significant activity"},
      {"measurement": "cell death / cell cycle arrest at 10 μM", "setting": "[10]; 10 μM", "result": "nearly all cells have committed to cell death"},
      {"measurement": "fold less potent than stilbene 4a in vitro", "setting": "[10]; 10 μM 5b equivalent to 100 nM stilbene 4a", "result": 100},
      {"measurement": "cell cycle effect", "setting": "[10]; 4a at 30, 100 nM, 5b at 1, 3, 10 μM", "result": "induced similar cell cycle arrest as stilbene 4a"},
      {"measurement": "concentration inducing a subG0/1 (dead) population", "setting": "[10]; 24 hours", "result": 3, "unit": "µM"},
      {"measurement": "water solubility (in words)", "setting": "[1]", "result": "high solubility"},
      {"measurement": "solubility", "setting": "[1]; HCl salt, read-out: water solubility, x HCl", "result": 759000, "unit": "µg/mL"},
      {"measurement": "solubility", "setting": "[1]; free base, read-out: water solubility, Free base", "result": "< 1000", "unit": "µg/mL"},
      {"measurement": "solubility", "setting": "[1]; oxalate salt, read-out: water solubility, x (COOH)2", "result": 5900, "unit": "µg/mL"},
      {"measurement": "microtubule pattern", "setting": "[11]", "result": "partial disruption of microtubules"},
      {"measurement": "fold less potent than stilbene 4a", "setting": "[4]; UCI101, from IC50", "result": "about 100"},
      {"measurement": "IC50", "setting": "[4]; UCI101, estimated", "result": "~3000", "unit": "nM"},
      {"measurement": "phospho-histone 3B positive cells", "setting": "[12]", "result": "dramatic increase in positive cells"},
      {"measurement": "tolerability", "setting": "[13]; 100 mg/kg by intraperitoneal injection", "result": "tolerated well without complication"},
      {"measurement": "persistence in circulation", "setting": "[13]; 100 mg/kg ip", "result": "stay in circulation longer than stilbene 4a"},
      {"measurement": "microtubule pattern", "setting": "[14]", "result": "completely disrupted microtubule formation"}
    ]}
  ]
}
